assay: LNP size and polydispersity index by Dynamic Light Scattering (Malvern Zetasizer); assay type: physicochemical; conditions: Table 5; ionizable lipid/DSPC/Chol/DMG-PEG2000 50/10/38.5/1.5 mol %; E7 mRNA; N/P 10
Experimental: (§1) Lipid based nanoparticles are produced by microfluidic mixing of an mRNA solution in sodium acetate buffer (100 mM, pH4) and lipid solution in a 2:1 volume ratio at a speed of 9 mL/min using the NanoAssemblr Benchtop (Precision Nanosystems). The lipid solution contained a mixture of the ionizable lipid of interest, DSPC, DOPC or DOPE (Avanti), Cholesterol (Sigma) and DMG-PEG2000 (Sunbright GM-020, NOF corporation. The 4 lipids were mixed at 6 different molar ratios. LNPs were dialyzed against TBS (10000 times more TBS volume than LNP volume) using slide-a-lyzer dialysis cassettes (20K MWCO, 3 mL, ThermoFisher). Size, polydispersity and zeta potential were measured with a Zetasizer Nano (Malvern). mRNA encapsulation was measured by standard Ribogreen RNA assay (Invitrogen).
Size and Poly Dispersity Index were assessed by Dynamic Light Scattering (DLS) on a Malvern Zetasizer. MC-3 is the ionizable lipid used in Onpattro and is considered the state-of-the art.
(§2) LNP formulations were prepared using a modified procedure of a method previously described for siRNA LNP synthesis. All formulations were prepared in a sterile manner with a N/P ratio of 10. All lipid components were dissolved in ethanol at molar ratios of 50:10:38.5:1.5 mol % (ionizable lipid/DSPC/Cholesterol/DMG-PEG2000). DSPC, Cholesterol and DMG-PEG2000 were purchased from Avanti Polar Lipids (Alabaster, Alabama, USA), while the Ionizable lipids are synthesized in-house. The final lipid concentration in ethanol was fixed at 10 mg/mL. E7 mRNA was dissolved in 100 mM acetate buffer (Sigma Aldrich, Saint-Louis, Missouri, USA) pH 4. The ethanol and aqueous phase were combined using a microfluidic mixer (NanoAssemblr® BenchTop (Precision Nanosystems, Vancouver, BC) in a 2:1 (aqueous:ethanol) ratio. Formulations were dialysed afterwards against 1× Sterile TBS pH 7.4 (Sigma Aldrich, Saint-Louis, Missouri, USA) using Slide-A-Lyzer® dialysis cassettes with a MWCO of 20.000 Da (Thermo Scientific, Massachusetts, USA) for 18 hours. Afterwards, the purified formulations were concentrated using Amicon ultra centrifugal filters (EMD Millipore, Massachusetts, USA). Finally, the exact concentration and E.E. % was determined through a Ribogreen Assay prior to final dilution with TBS (100 μg/mL E7 mRNA per formulation. All formulations were characterized for size and PDI using Dynamic Light Scattering Zetasizer Nano-ZS (Malvern Pananlytical Ltd., Malvern, UK) and stored afterwards at 4° C. The physico-chemical characteristics of each formulation can be found in Table 5.

Row | Compound | PDI | size
1 | CCCCCCCC/C=C\CCCCCCCC(=O)OCC(CNC(=O)OCCOC(C)(C)OCCOC(=O)NCCN1CCCCCC1)OC(=O)CCCCCCC/C=C\CCCCCCCC (centres unmarked) [K-Ac7-DOg] | 0.130 | 164.8 nm
2 | CCCCC/C=C\C/C=C\CCCCCCCCC(CCCCCCCC/C=C\C/C=C\CCCCC)OC(=O)CCCN(C)C [MC3, reference compound] | 0.106 | 67.57 nm
3 | CCCCCCCC/C=C\CCCCCCCC(=O)OCC(CNC(=O)OCCSSCCOC(=O)NCCCN1CCCCC1CC)OC(=O)CCCCCCC/C=C\CCCCCCCC (centres unmarked) [S-Ac6e-DOg] | 0.266 | 178.1 nm

same assay, conditions: Table 7, Ratio 1: 50/10/38.5/1.5 mol % ionizable lipid/DSPC (SS-EC: DOPE)/Chol/DMG-PEG2000; N/P 10

Row | Compound | PDI | size
4 | CCCCC/C=C\C/C=C\CCCCCCCCC(CCCCCCCC/C=C\C/C=C\CCCCC)OC(=O)CCCN(C)C [MC3, reference compound] | 0.117 | 74 nm

assay: mRNA encapsulation efficiency by Ribogreen RNA assay; assay type: physicochemical; conditions: Table 2; LNP ionizable lipid/DOPE/cholesterol/DMG-PEG2000 about 50/10/38.5/1.5; eGFP mRNA
Experimental: as §1, with “(Invitrogen). […]” for “(Invitrogen).”
as §2

Row | Compound | % encap
5 | CCCCCCCCCCCCN(CCCCCCCCCCCC)C(=O)OCCOC(C)(C)OCCOC(=O)NCCN(C(C)C)C(C)C [K-Adip-Dda] | 97%
6 | CCCCC/C=C\C/C=C\CCCCCCCCC(CCCCCCCC/C=C\C/C=C\CCCCC)OC(=O)CCCN(C)C [MC3, reference compound] | 100%

same assay, conditions: Table 3; LNP ionizable lipid/phospholipid/cholesterol/DMG-PEG2000 about 50/10/38.5/1.5; DOPE, except MC-3 with DSPC; eGFP mRNA

Row | Compound | % encap
7 | CCCCCCCC/C=C\CCCCCCCC(=O)OCC(CNC(=O)OCCOC(C)(C)OCCOC(=O)NCCN1CCCCCC1)OC(=O)CCCCCCC/C=C\CCCCCCCC (centres unmarked) [K-Ac7-DOg] | 93%
8 | CCCCC/C=C\C/C=C\CCCCCCCCC(CCCCCCCC/C=C\C/C=C\CCCCC)OC(=O)CCCN(C)C [MC3, reference compound] | 94%
9 | CCCCCCCC/C=C\CCCCCCCC(=O)OCC(CNC(=O)OCCSSCCOC(=O)NCCCN1CCCCC1CC)OC(=O)CCCCCCC/C=C\CCCCCCCC (centres unmarked) [S-Ac6e-DOg] | 95%

same assay, conditions: Table 5; ionizable lipid/DSPC/Chol/DMG-PEG2000 50/10/38.5/1.5 mol %; E7 mRNA; N/P 10

Row | Compound | E.E. (encapsulation efficiency)
10 | CCCCCCCC/C=C\CCCCCCCC(=O)OCC(CNC(=O)OCCOC(C)(C)OCCOC(=O)NCCN1CCCCCC1)OC(=O)CCCCCCC/C=C\CCCCCCCC (centres unmarked) [K-Ac7-DOg] | 49%
11 | CCCCC/C=C\C/C=C\CCCCCCCCC(CCCCCCCC/C=C\C/C=C\CCCCC)OC(=O)CCCN(C)C [MC3, reference compound] | 99%
12 | CCCCCCCC/C=C\CCCCCCCC(=O)OCC(CNC(=O)OCCSSCCOC(=O)NCCCN1CCCCC1CC)OC(=O)CCCCCCC/C=C\CCCCCCCC (centres unmarked) [S-Ac6e-DOg] | 92%

same assay, conditions: Table 7, Ratio 1: 50/10/38.5/1.5 mol % ionizable lipid/DSPC (SS-EC: DOPE)/Chol/DMG-PEG2000; N/P 10

Row | Compound | E.E. (encapsulation efficiency)
13 | CCCCC/C=C\C/C=C\CCCCCCCCC(CCCCCCCC/C=C\C/C=C\CCCCC)OC(=O)CCCN(C)C [MC3, reference compound] | 96%

assay: Body weight after intratumoral LNP administration (CT26 model); assay type: in vivo, Balb/c mice; conditions: after intratumoral administration of 10 μg mRNA LNP
Experimental: Fluc mRNA expression in tumor and liver was assessed at 6 an 24 hours post injection. By injecting mice peritoneally with D-luciferin (Promega), bioluminescence can be measured through in vivo imaging (IVIS Spectrum System). Bioluminescence is generated through an oxidation reaction which occurs between the enzyme luciferase derived from the firefly mRNA encapsulated in the LNP and its substrate D-luciferin. The Living Image Software (PerkinElmer) was used to specify tumor and liver ‘region of interests (ROIs) after which the average radiance (p/s/cm^2/sr) was calculated within these ROIs. To monitor tolerability of different LNP types used, bodyweight at 6 and 24 hours post injection was compared to baseline bodyweight at day of randomization.
Balb/c mice were subcutaneously inoculated with CT26 tumor cells. When tumors reached a mean volume of 50-100 mm^3, tumors were injected with the respective mRNA LNPs (10 μg mRNA; 20 μl volume; TBS buffer) or with control buffer.

Row | Compound | body weight
14 | CCCCC/C=C\C/C=C\CCCCCCCCC(CCCCCCCC/C=C\C/C=C\CCCCC)OC(=O)CCCN(C)C [MC3, reference compound] | significant body weight loss

assay: Body weight after intratumoral LNP administration (B16F10 model); assay type: in vivo, C57/BL6 mice; conditions: B16F10 model (Example 2.5); after intratumoral administration of 10 μg mRNA LNP

Row | Compound | body weight
15 | CCCCC/C=C\C/C=C\CCCCCCCCC(CCCCCCCC/C=C\C/C=C\CCCCC)OC(=O)CCCN(C)C [MC3, reference compound] | significant body weight loss

assay: LNP size and polydispersity index by Dynamic Light Scattering (Malvern Zetasizer); assay type: physicochemical; conditions: Table 2; LNP ionizable lipid/DOPE/cholesterol/DMG-PEG2000 about 50/10/38.5/1.5; eGFP mRNA

Row | Compound | PDI
16 | CCCCCCCCCCCCN(CCCCCCCCCCCC)C(=O)OCCOC(C)(C)OCCOC(=O)NCCN(C(C)C)C(C)C [K-Adip-Dda] | 0.292
17 | CCCCC/C=C\C/C=C\CCCCCCCCC(CCCCCCCC/C=C\C/C=C\CCCCC)OC(=O)CCCN(C)C [MC3, reference compound] | 0.103

same assay, conditions: Table 2; LNP ionizable lipid/DOPE/cholesterol/DMG-PEG2000 about 50/10/38.5/1.5; eGFP mRNA, mRNA/ionizable lipid molar ratio 1/10; in nm (unit assumed)

Row | Compound | size
18 | CCCCCCCCCCCCN(CCCCCCCCCCCC)C(=O)OCCOC(C)(C)OCCOC(=O)NCCN(C(C)C)C(C)C [K-Adip-Dda] | 78.59
19 | CCCCC/C=C\C/C=C\CCCCCCCCC(CCCCCCCC/C=C\C/C=C\CCCCC)OC(=O)CCCN(C)C [MC3, reference compound] | 73.14

same assay, conditions: Table 3; LNP ionizable lipid/phospholipid/cholesterol/DMG-PEG2000 about 50/10/38.5/1.5; DOPE, except MC-3 with DSPC; eGFP mRNA

Row | Compound | PDI
20 | CCCCCCCC/C=C\CCCCCCCC(=O)OCC(CNC(=O)OCCOC(C)(C)OCCOC(=O)NCCN1CCCCCC1)OC(=O)CCCCCCC/C=C\CCCCCCCC (centres unmarked) [K-Ac7-DOg] | 0.108
21 | CCCCC/C=C\C/C=C\CCCCCCCCC(CCCCCCCC/C=C\C/C=C\CCCCC)OC(=O)CCCN(C)C [MC3, reference compound] | 0.08
22 | CCCCCCCC/C=C\CCCCCCCC(=O)OCC(CNC(=O)OCCSSCCOC(=O)NCCCN1CCCCC1CC)OC(=O)CCCCCCC/C=C\CCCCCCCC (centres unmarked) [S-Ac6e-DOg] | 0.311

same assay, conditions: Table 3; LNP ionizable lipid/phospholipid/cholesterol/DMG-PEG2000 about 50/10/38.5/1.5; DOPE, except MC-3 with DSPC; eGFP mRNA; in nm (unit assumed)

Row | Compound | size
23 | CCCCCCCC/C=C\CCCCCCCC(=O)OCC(CNC(=O)OCCOC(C)(C)OCCOC(=O)NCCN1CCCCCC1)OC(=O)CCCCCCC/C=C\CCCCCCCC (centres unmarked) [K-Ac7-DOg] | 62.26
24 | CCCCC/C=C\C/C=C\CCCCCCCCC(CCCCCCCC/C=C\C/C=C\CCCCC)OC(=O)CCCN(C)C [MC3, reference compound] | 73.33
25 | CCCCCCCC/C=C\CCCCCCCC(=O)OCC(CNC(=O)OCCSSCCOC(=O)NCCCN1CCCCC1CC)OC(=O)CCCCCCC/C=C\CCCCCCCC (centres unmarked) [S-Ac6e-DOg] | 63.86

— patent US20240050574A1, “IONIZABLE LIPIDS” (eTheRNA immunotherapies NV, priority 2020, published 2024)
